Measurements: patent publication US20260284208A1, “SYSTEM” (Oxford University Innovation Limited, priority 2023, published 2026)

Test system: library of 8,380 IKZF3 degrons (ZF-eGFP/mCherry reporter) in Jurkat cells
Assay: Pooled library screen (FACS, NGS, limma voom LogFC of positive vs negative read counts)
Assay type: cell-based, human
Procedure: A library of 8,380 IKZF3 degrons was cloned into pLVX-Sprout to create the eGFP/mCherry protein degradation reporter plasmid pool. A lentivirus pool was then generated using the Lenti-X lentiviral vector production method.
Jurkat cells were transduced at a multiplicity of infection of <0.3 with the lentivirus vector library in order to maximise the number of cells with a single integration. Transductions were carried out in 6 well TC-treated cell culture dishes (Falcon) with 3×10^6 cells per well. Cells were incubated for 2 days at 37° C. and 5% CO2 before the supernatant was removed and replaced with fresh media. 6 days post-transduction, mCherry+ cells were isolated via FACS using the FACS Aria Fusion (BD) in a buffer containing PBS (Gibco), 2 mM EDTA (Gibco), 25 mM HEPES (Sigma) and 1% BSA (Sigma). 8 days later, cells were treated with DMSO or a thalidomide analog for 18 hours at 37° C. and 5% CO2. mCherry+GFPlow and NOT(mCherry+GFPlow) cells were sorted by FACS using the FACS Aria Fusion (BD). DMSO treated cells were used to set the mCherry+GFPlow gate and dead cells were excluded from sorting by staining cells with 1 μg/mL DAPI (ThermoFisher). gDNA was isolated using the Maxwell RSC 48 (Promega). gDNA from cells that were unsorted and untreated were also isolated to determine the library representation on the day of compound treatment. Throughout the screen >600× coverage of the library was maintained. 3 biological replicates were carried out with a new transduction taking place each time.
A two-step PCR was used where the first PCR (PCR1) amplified the integrated degron sequence from gDNA and the second PCR (PCR2) added Illumina adaptors and barcodes to permit multiplexing. See Supp F for PCR1 and PCR2 primers. Q5 Hot Start High-Fidelity 2× Master Mix (New England Biolabs) was used for both PCRs. Sufficient gDNA was amplified in PCR1 in order to maintain >600× coverage and amplicons were purified using solid phase reversible immobilization (SPRI) beads (Beckman Coulter). Purified PCR1 products were analysed on the Tapestation 4200 (Agilent) to confirm purity prior to proceeding to PCR2. Sufficient PCR1 product was amplified in PCR2 in order to maintain >600× coverage and amplicons were run on a 2% agarose TAE gel. Target bands were excised and purified using the NucleoSpin Gel and PCR Clean-up Kit (Machery Nagel). Amplicons were analysed on the Tapestation 4200 and quantified using Qubit dsDNA HS kit (ThermoFisher). PCR products were pooled and sequenced as paired-reads on the NovaSeq (Illumina) using a SP2 200 cycles kit (Illumina).
Count distributions, percentage of read mapping, library coverage and replicate correlation per sample were assessed for QC purposes.
To carry out the library screen, we used the same plasmid construct as in our earlier flow cytometry assays, but pooling all 8,380 mutants together into one Jurkat population, ensuring a copy number of one plasmid per cell (FIG. 4B). […] These GFP-negative cells were then separated from the remaining GFP-positive population using fluorescence activated cell sorting (FACS). These two populations were then sequenced and the relative abundance of every mutant in both populations compared to provide a log FC value for each mutant sequence. This value indicated how frequently a sequence is observed in the GFP-negative population relative to the GFP-positive population, and therefore how effective a degron it is for that particular IMID compound.

## O=C1CCC(N2C(=O)c3ccc(N4CCOCC4)cc3C2=O)C(=O)N1 (centres unmarked) [B03]
Degron-ID 4175, SEQ ID NO 3945, 46F_47W_49E_50Q_52G_53A_54S_55F_67L
  B03_logFC: 2.767
Degron-ID 4189, SEQ ID NO 3997, 46F_47W_49E_50V_52G_53A_54L_55F_67L
  B03_logFC: 2.69
Degron-ID 4212, SEQ ID NO 4019, 46F_47W_49N_50I_52G_53A_54P_55F_67L
  B03_logFC: 2.659
Degron-ID 4216, SEQ ID NO 3948, 46F_47W_49N_50I_52G_53A_54T_55F_67L
  B03_logFC: 2.757
Degron-ID 4217, SEQ ID NO 3953, 46F_47W_49N_50I_52G_53A_54V_55F_67L
  B03_logFC: 2.75
Degron-ID 4265, SEQ ID NO 3969, 46F_47W_49P_50I_52G_53A_54G_55F_67L
  B03_logFC: 2.729
Degron-ID 4267, SEQ ID NO 4028, 46F_47W_49P_50I_52G_53A_54I_55F_67L
  B03_logFC: 2.643
Degron-ID 4270, SEQ ID NO 3946, 46F_47W_49P_50I_52G_53A_54M_55F_67L
  B03_logFC: 2.765
Degron-ID 4279, SEQ ID NO 3996, 46F_47W_49P_50I_52G_53A_54Y_55F_67L
  B03_logFC: 2.691
Degron-ID 4307, SEQ ID NO 3975, 46F_47W_49P_50V_52G_53A_54I_55F_67L
  B03_logFC: 2.72
Degron-ID 4366, SEQ ID NO 3950, 46F_47Y_49D_50V_52G_53A_54H_55F_67L
  B03_logFC: 2.757
Degron-ID 4368, SEQ ID NO 4018, 46F_47Y_49D_50V_52G_53A_54K_55F_67L
  B03_logFC: 2.66
Degron-ID 4456, SEQ ID NO 4010, 46F_47Y_49N_50I_52G_53A_54T_55F_67L
  B03_logFC: 2.672
Degron-ID 4503, SEQ ID NO 4007, 46F_47Y_49P_50I_52G_53A_54E_55F_67L
  B03_logFC: 2.675
Degron-ID 4510, SEQ ID NO 3967, 46F_47Y_49P_50I_52G_53A_54M_55F_67L
  B03_logFC: 2.732
Degron-ID 4544, SEQ ID NO 4004, 46F_47Y_49P_50V_52G_53A_54F_55F_67L
  B03_logFC: 2.679
Degron-ID 4559, SEQ ID NO 4033, 46F_47Y_49P_50V_52G_53A_54Y_55F_67L
  B03_logFC: 2.636
Degron-ID 6474, SEQ ID NO 3991, 46L_47A_49P_50I_52G_53F_54R_55C_67L
  B03_logFC: 2.7
Degron-ID 6480, SEQ ID NO 4002, 46L_47C_49P_50I_52G_53F_54A_55C_67L
  B03_logFC: 2.685
Degron-ID 6494, SEQ ID NO 4012, 46L_47C_49P_50I_52G_53F_54R_55C_67L
  B03_logFC: 2.668
Degron-ID 6496, SEQ ID NO 3983, 46L_47C_49P_50I_52G_53F_54T_55C_67L
  B03_logFC: 2.713
Degron-ID 6544, SEQ ID NO 3994, 46L_47F_49P_50I_52G_53F_54F_55C_67L
  B03_logFC: 2.694
Degron-ID 6545, SEQ ID NO 3958, 46L_47F_49P_50I_52G_53F_54G_55C_67L
  B03_logFC: 2.743
Degron-ID 6547, SEQ ID NO 3973, 46L_47F_49P_50I_52G_53F_54I_55C_67L
  B03_logFC: 2.724
Degron-ID 6559, SEQ ID NO 3972, 46L_47F_49P_50I_52G_53F_54Y_55C_67L
  B03_logFC: 2.725
Degron-ID 6579, SEQ ID NO 3987, 46L_47G_49P_50I_52G_53F_54Y_55C_67L
  B03_logFC: 2.704
Degron-ID 6581, SEQ ID NO 3985, 46L_47H_49P_50I_52G_53F_54C_55C_67L
  B03_logFC: 2.71
Degron-ID 6593, SEQ ID NO 4008, 46L_47H_49P_50I_52G_53F_54Q_55C_67L
  B03_logFC: 2.674
Degron-ID 6600, SEQ ID NO 3995, 46L_47I_49P_50I_52G_53F_54A_55C_67L
  B03_logFC: 2.692
Degron-ID 6715, SEQ ID NO 3949, 46L_47Q_49P_50I_52G_53F_54S_55C_67L
  B03_logFC: 2.757
Degron-ID 6759, SEQ ID NO 4005, 46L_47S_49P_50I_52G_53F_54Y_55C_67L
  B03_logFC: 2.677
Degron-ID 6761, SEQ ID NO 4009, 46L_47T_49P_50I_52G_53F_54C_55C_67L
  B03_logFC: 2.672
Degron-ID 6793, SEQ ID NO 3980, 46L_47V_49P_50I_52G_53F_54Q_55C_67L
  B03_logFC: 2.717
Degron-ID 6803, SEQ ID NO 4032, 46L_47W_49P_50I_52G_53F_54E_55C_67L
  B03_logFC: 2.637
Degron-ID 6807, SEQ ID NO 3992, 46L_47W_49P_50I_52G_53F_54I_55C_67L
  B03_logFC: 2.695
Degron-ID 7568, SEQ ID NO 3954, 46F_47W_49E_50I_52G_53R_54K_55F_67L
  B03_logFC: 2.75
Degron-ID 7574, SEQ ID NO 3993, 46F_47W_49E_50I_52G_53R_54R_55F_67L
  B03_logFC: 2.695
Degron-ID 7699, SEQ ID NO 3976, 46L_47F_49E_50I_52G_53F_54Y_55C_67L
  B03_logFC: 2.72
Degron-ID 7894, SEQ ID NO 3947, 46L_47S_49E_50I_52G_53F_54R_55C_67L
  B03_logFC: 2.76
Degron-ID 7920, SEQ ID NO 3990, 46L_47V_49E_50I_52G_53F_54A_55C_67L
  B03_logFC: 2.702
Degron-ID 7971, SEQ ID NO 3955, 46L_47Y_49E_50I_52G_53F_54N_55C_67L
  B03_logFC: 2.749
Degron 1074 (SEQ ID NO 3496) 46F_47F_49E_50V_52G_53A_54R_55F_67L
  B03_logFC: 3.71
Degron 4088 (SEQ ID NO 3502) 46F_47W_49D_50I_52G_53A_54K_55F_67L
  B03_logFC: 3.696
Degron 4091 (SEQ ID NO 3497) 46F_47W_49D_50I_52G_53A_54N_55F_67L
  B03_logFC: 3.708
Degron 4395 (SEQ ID NO 3500) 46F_47Y_49E_50I_52G_53A_54S_55F_67L
  B03_logFC: 3.7
Degron 4420 (SEQ ID NO 3499) 46F_47Y_49E_50V_52G_53A_54A_55F_67L
  B03_logFC: 3.704
Degron 4551 (SEQ ID NO 3503) 46F_47Y_49P_50V_52G_53A_54N_55F_67L
  B03_logFC: 3.692
Degron 6814 (SEQ ID NO 3498) 46L_47W_49P_50I_52G_53F_54R_55C_67L
  B03_logFC: 3.704
Degron 7973 (SEQ ID NO 3495) 46L_47Y_49E_50I_52G_53F_54Q_55C_67L
  B03_logFC: 3.711
Degron 7975 (SEQ ID NO 3501) 46L_47Y_49E_50I_52G_53F_54S_55C_67L
  B03_logFC: 3.698
